Format in all cases: functional
The species entered for one experiment is Mus musculus. The experiment in a line: animal or person.
Experiment [1] deals with Rattus norvegicus. The experiment in a line: Analgesic activity in sc dosed rat assessed as dose required for 2 times increase in reaction time after 30 mins by tail jerk test relative to control.
In experiment [2] the test system is Rattus norvegicus. The experiment in a line: Analgesic activity in sc dosed rat assessed as dose required for 2 times increase in reaction time after 15 mins by tail jerk test relative to control.
Where [3] appears, read: Mus musculus, sc, read-out: ED50.

A value given as a limit tells only on which side of the number the result lay.

Description for Mus musculus: Analgesic activity in sc dosed mouse assessed as inhibition of acetic acid-induced writhing after 15 to 30 mins

As a reminder, the ED50 is the midpoint of the dose-response relation. Regarding `CN1CC[C@]23c4c5ccc(O)c4O[C@H]2[C@@H](O)C=C[C@H]3[C@H]1C5.CN1CC[C@]23c4c5ccc(O)c4O[C@H]2[C@@H](O)C=C[C@H]3[C@H]1C5.O=S(=O)(O)O`, the ED50 in the experiment filed under Mus musculus (setting [3]) came to 0.97 mg/kg.

For the compound `COc1ccc2c3c1O[C@H]1[C@@H](O)C=C[C@H]4[C@@H](C2)N(C)CC[C@@]341.O=S(=O)(O)O`, the ED50 in the experiment listed under Mus musculus (setting [3]) was 6.7 mg/kg. The ED in the experiment with Rattus norvegicus [1] was found to be 4.2 mg/kg.

On to `COc1cccc(C(C2COCOC2)N(C)C)c1.O=C(O)/C=C\C(=O)O` (stereo not given), for which the ED50 in the experiment listed under Mus musculus (setting [3]) was over 50 mg/kg.

In the case of `CN(C)C(c1cccc(Cl)c1)C1COCOC1.O=C(O)/C=C\C(=O)O` (stereo not given), the ED50 in the experiment listed under Mus musculus (setting [3]) was over 50 mg/kg.

`CN(C)C(c1ccc(Cl)cc1)C1COCOC1.Cl` (stereo not given): in the experiment filed under Mus musculus (setting [3]), the ED50 came out at 32 mg/kg.

Regarding `CN(C)C(c1ccc(Cl)cc1Cl)C1COCOC1.Cl` (stereo not given), the ED50 in the experiment filed under Mus musculus (setting [3]) is over 50 mg/kg.

As for `CN(C)C(c1ccc(F)cc1)C1COCOC1.Cl` (stereo not given), the median effective dose (ED50) in the experiment filed under Mus musculus (setting [3]) was found to be 30 mg/kg.

Consider `COc1ccc(C(C2COCOC2)N(C)C)cc1.Cl` (stereo not given), for which the ED50 in the experiment filed under Mus musculus (setting [3]) is over 50 mg/kg.

`Cc1ccccc1C(C1COCOC1)N(C)C.Cl` (stereo not given): in the experiment listed under Mus musculus (setting [3]), the ED50 was 39 mg/kg.

For the compound `Cc1cccc(C(C2COCOC2)N(C)C)c1.O=C(O)/C=C\C(=O)O` (stereo not given), the ED50 in the experiment listed under Mus musculus (setting [3]) was over 50 mg/kg.

For `Cc1ccc(C(C2COCOC2)N(C)C)cc1.O=C(O)/C=C\C(=O)O` (stereo not given), the ED50 in the experiment listed under Mus musculus (setting [3]) is 20 mg/kg. In the experiment with Rattus norvegicus [2], the ED was 7.9 mg/kg.

As to `CN(C)C(c1cccc(OCc2ccccc2)c1)C1COCOC1.Cl` (stereo not given), the ED50 in the experiment listed under Mus musculus (setting [3]) is over 50 mg/kg.

Consider `CN(C)C(c1ccc(OCc2ccccc2)cc1)C1COCOC1.Cl` (stereo not given), for which the ED50 in the experiment filed under Mus musculus (setting [3]) was over 50 mg/kg.

`CN(C)C(c1ccccn1)C1COCOC1.O=C(O)/C=C\C(=O)O` (stereo not given): the ED50 in the experiment listed under Mus musculus (setting [3]) is over 50 mg/kg.

With `CN(C)C(c1ccncc1)C1COCOC1.O=C(O)/C=C\C(=O)O` (stereo not given), in the experiment filed under Mus musculus (setting [3]), the 50% effective dose (ED50) is over 50 mg/kg.

Consider `Cl.Clc1ccc(C(C2COCOC2)N2CCCCC2)cc1` (stereo not given), for which the ED50 in the experiment filed under Mus musculus (setting [3]) was determined as 33 mg/kg.

As for `CCN(CC)C(c1ccccc1)C1COCOC1.[O-][Cl+3]([O-])([O-])O` (stereo not given), in the experiment listed under Mus musculus (setting [3]), the ED50 was over 50 mg/kg.

On to `Cl.c1ccc(C(C2COCOC2)N2CCCC2)cc1` (stereo not given), for which, in the experiment listed under Mus musculus (setting [3]), the median effective dose (ED50) was over 50 mg/kg.

On to `Cl.c1ccc(C(C2COCOC2)N2CCOCC2)cc1` (stereo not given), for which the median effective dose (ED50) in the experiment filed under Mus musculus (setting [3]) was over 50 mg/kg.

As for `CN(C)C(c1cccc(O)c1)C1COCOC1.Cl` (stereo not given), the ED50 in the experiment listed under Mus musculus (setting [3]) was over 50 mg/kg.

On to `CN(C)C(c1ccc(O)cc1)C1COCOC1.Cl` (stereo not given), for which the ED50 in the experiment filed under Mus musculus (setting [3]) was 13 mg/kg. Besides, the ED in the experiment on Rattus norvegicus [2] is 12 mg/kg.

Turning to `CC(=O)Oc1ccc(C(C2COCOC2)N(C)C)cc1.Cl` (stereo not given), the ED50 in the experiment listed under Mus musculus (setting [3]) was found to be 11 mg/kg. Also, in the experiment on Rattus norvegicus [2], the ED was 7.3 mg/kg.

Turning to `CNC(c1ccccc1)C1COCOC1.Cl` (stereo not given), the median effective dose (ED50) in the experiment filed under Mus musculus (setting [3]) was found to be 21 mg/kg.

Consider `C=CCN(C)C(c1ccccc1)C1COCOC1.Cl` (stereo not given), for which, in the experiment filed under Mus musculus (setting [3]), the median effective dose (ED50) is over 50 mg/kg.

For `Cl.NC(c1ccccc1)C1COCOC1` (stereo not given), the ED50 in the experiment filed under Mus musculus (setting [3]) was over 50 mg/kg.

As to `CC1OCOCC1C(c1ccccc1)N(C)C.Cl` (stereo not given), the ED50 in the experiment listed under Mus musculus (setting [3]) stood at 32 mg/kg.

Regarding `CN(C)C(c1ccccc1)C1(C)COCOC1.Cl` (stereo not given), in the experiment filed under Mus musculus (setting [3]), the ED50 is over 50 mg/kg.

For the compound `CN(C)C(c1ccccc1Cl)C1COCOC1.Cl` (stereo not given), in the experiment filed under Mus musculus (setting [3]), the median effective dose (ED50) was 48 mg/kg.

For the compound `CN(C)C(c1cccnc1)C1COCOC1.Cl` (racemic), in the experiment filed under Mus musculus, the median effective dose (ED50) came to 6.1 mg/kg. In the experiment on Rattus norvegicus [2], the ED worked out at 9.6 mg/kg.

`CC1OCC(C(c2ccccc2)N(C)C)CO1` (racemic): the ED50 in the experiment listed under Mus musculus (setting [3]) was 3.9 mg/kg. For the same compound, the ED in the experiment with Rattus norvegicus [2] amounted to 6.3 mg/kg.

Consider `CCC1OCC(C(c2ccccc2)N(C)C)CO1` (racemic), for which the median effective dose (ED50) in the experiment listed under Mus musculus (setting [3]) worked out at 19 mg/kg.

Take `CC(C)C1OCC(C(c2ccccc2)N(C)C)CO1.Cl` (racemic): the ED50 in the experiment listed under Mus musculus (setting [3]) was over 50 mg/kg.

For the compound `CN(C)C(c1ccccc1)C1COC(C2CCCCC2)OC1.Cl` (racemic), in the experiment filed under Mus musculus (setting [3]), the ED50 is over 50 mg/kg.

Turning to `CN(C)C(c1ccccc1)C1COC(C2CCCC2)OC1` (racemic), in the experiment listed under Mus musculus (setting [3]), the ED50 amounted to 45 mg/kg.

As to `CCC1(c2ccccc2)OCC(C(c2ccccc2)N(C)C)CO1.O=C(O)/C=C\C(=O)O` (racemic), in the experiment filed under Mus musculus (setting [3]), the ED50 was over 50 mg/kg.

Regarding `Cc1ccc(C(C2COC(C)OC2)N(C)C)cc1.Cl` (racemic), the ED50 in the experiment filed under Mus musculus (setting [3]) was found to be 2.9 mg/kg. In addition, the ED in the experiment on Rattus norvegicus [2] is 7.9 mg/kg.

On to `CN(C)C(c1ccccc1)C1COCOC1.Cl` (racemic), for which the ED50 in the experiment filed under Mus musculus came to 14 mg/kg. The ED with Rattus norvegicus [2] came out at 4 mg/kg.

`CN(C)C(c1ccccc1)C1COCOC1.Cl` (stereo in doubt; (+)-4a) returned an ED50 in the experiment filed under Mus musculus of over 50 mg/kg. The ED in the experiment on Rattus norvegicus [2] worked out at 69 mg/kg.

For the compound `CN(C)C(c1cccnc1)C1COCOC1.Cl` (stereo in doubt; (+)-4o), in the experiment filed under Mus musculus, the ED50 is over 50 mg/kg. Moreover, the ED in the experiment on Rattus norvegicus [2] is over 80 mg/kg.

In the experiment filed under Mus musculus, `CN(C)C(c1ccccc1)C1COCOC1.Cl` (stereo in doubt; (-)-4a) displayed a median effective dose (ED50) of 6.2 mg/kg. Besides, in the experiment on Rattus norvegicus [2], the ED was determined as 2.4 mg/kg.

`CN(C)C(c1cccnc1)C1COCOC1.Cl` (stereo in doubt; (-)-4o) registered an ED50 in the experiment listed under Mus musculus of 3.6 mg/kg. For the same compound, the ED in the experiment on Rattus norvegicus [2] is 5.7 mg/kg.

Turning to `CCOC(=O)C1(c2ccccc2)CCN(C)CC1.Cl` [MEPERIDINE HYDROCHLORIDE], in the experiment filed under Mus musculus (setting [3]), the ED50 worked out at 2.9 mg/kg. In the experiment with Rattus norvegicus [2], the ED was 1.9 mg/kg.
